Experimental data: PubChem BioAssay AID248 (DTP/NCI, 2004)
“And” between values parts separate entries of the source, which are not always exact repeats. Equal entries are not always repeated. Inconclusive results and toxic doses are left out.

System: L1210 leukemia ip in BDF1 mice, survival T/C
Assay: NCI In Vivo Anticancer Drug Screen. Data for tumor model L1210 Leukemia (intraperitoneal) in B6D2F1 (BDF1) mice
Settings: endpoint: mean survival time, higher = longer survival
How it was run: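 Ratio derived from survival: compound-dosed mice over vehicle-dosed mice, all bearing a transplantable tumor.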

[1] = dose: 50.0 mg/kg/injection, schedule: Q01DX009 (ip), vehicle: saline with Tween-80
[2] = dose: 100.0 mg/kg/injection, schedule: Q01DX009 (ip), vehicle: saline with Tween-80
[3] = dose: 200.0 mg/kg/injection, schedule: Q01DX009 (ip), vehicle: saline with Tween-80
[4] = dose: 100.0 mg/kg/injection, schedule: Q04DX002 (ip), vehicle: Klucel (hydroxypropylcellulose) (HPC)
[5] = dose: 200.0 mg/kg/injection, schedule: Q04DX002 (ip), vehicle: Klucel (hydroxypropylcellulose) (HPC)
[6] = dose: 50.0 mg/kg/injection, schedule: Q01DX001 (ip), vehicle: carboxymethylcellulose (CMC)
[7] = dose: 100.0 mg/kg/injection, schedule: Q01DX001 (ip), vehicle: carboxymethylcellulose (CMC)
[8] = dose: 200.0 mg/kg/injection, schedule: Q01DX001 (ip), vehicle: carboxymethylcellulose (CMC)
[9] = dose: 100.0 mg/kg/injection, schedule: Q01DX001 (ip), vehicle: Klucel (hydroxypropylcellulose) (HPC)
[10] = dose: 200.0 mg/kg/injection, schedule: Q01DX001 (ip), vehicle: Klucel (hydroxypropylcellulose) (HPC)
[11] = dose: 400.0 mg/kg/injection, schedule: Q01DX001 (ip), vehicle: Klucel (hydroxypropylcellulose) (HPC)
[12] = dose: 100.0 mg/kg/injection, schedule: Q01DX001 (ip), vehicle: saline with Tween-80
[13] = dose: 100.0 mg/kg/injection, schedule: Q04DX003 (ip), vehicle: saline with Tween-80
[14] = dose: 200.0 mg/kg/injection, schedule: Q01DX001 (ip), vehicle: saline with Tween-80
[15] = dose: 200.0 mg/kg/injection, schedule: Q04DX003 (ip), vehicle: saline with Tween-80
[16] = dose: 400.0 mg/kg/injection, schedule: Q01DX001 (ip), vehicle: saline with Tween-80
[17] = dose: 400.0 mg/kg/injection, schedule: Q04DX003 (ip), vehicle: saline with Tween-80
[18] = dose: 100.0 mg/kg/injection, schedule: Q01DX001 (ip), vehicle: saline
[19] = dose: 100.0 mg/kg/injection, schedule: Q04DX003 (ip), vehicle: Klucel (hydroxypropylcellulose) (HPC)
[20] = dose: 200.0 mg/kg/injection, schedule: Q04DX003 (ip), vehicle: Klucel (hydroxypropylcellulose) (HPC)
[21] = dose: 400.0 mg/kg/injection, schedule: Q04DX003 (ip), vehicle: Klucel (hydroxypropylcellulose) (HPC)

## CC1(C)OCC(CO)(Nc2nc(N3CC3)nc(N3CC3)n2)CO1
dose: 0.31 mg/kg/injection, schedule: Q01DX009 (ip), vehicle: saline
  T/C: 105 % of control
dose: 0.62 mg/kg/injection, schedule: Q01DX009 (ip), vehicle: saline
  T/C: 111 % of control
dose: 2.5 mg/kg/injection, schedule: Q01DX009 (ip), vehicle: saline
  T/C: 152 % of control and 168 % of control
dose: 7.5 mg/kg/injection, schedule: Q01DX009 (ip), vehicle: saline
  T/C: 101 % of control

## COC(c1ccccc1)(c1ccccc1)C(C)O (stereo unspecified)
[1]
  T/C: 87 % of control
[2]
  T/C: 97 % of control
[3]
  T/C: 103 % of control

## CCCCCC(=O)N1CCCCC1CC (stereo unspecified)
[4]
  T/C: 92 % of control
[5]
  T/C: 92 % of control

## CC1(C)OC2OC(COC(=O)c3ccccc3)C(O)C2O1 (stereo unspecified)
[6]
  T/C: 98 % of control
[7]
  T/C: 101 % of control
[8]
  T/C: 104 % of control
dose: 400.0 mg/kg/injection, schedule: Q01DX001 (ip), vehicle: carboxymethylcellulose (CMC)
  T/C: 98 % of control

## CCN(CC)CCNCCN
dose: 12.5 mg/kg/injection, schedule: Q01DX009 (ip), vehicle: saline
  T/C: 107 % of control
dose: 25.0 mg/kg/injection, schedule: Q01DX009 (ip), vehicle: saline
  T/C: 111 % of control
dose: 50.0 mg/kg/injection, schedule: Q01DX009 (ip), vehicle: saline
  T/C: 101 % of control and 102 % of control
dose: 100.0 mg/kg/injection, schedule: Q04DX003 (ip), vehicle: saline
  T/C: 94 % of control
dose: 200.0 mg/kg/injection, schedule: Q04DX003 (ip), vehicle: saline
  T/C: 96 % of control

## COc1cc2c3c(c1)-c1nc4ccccc4cc1CN3CCC2
dose: 100.0 mg/kg/injection, schedule: Q01DX009 (ip), vehicle: other
  T/C: 102 % of control
dose: 100.0 mg/kg/injection, schedule: Q04DX003 (ip), vehicle: other
  T/C: 97 % of control
dose: 200.0 mg/kg/injection, schedule: Q01DX009 (ip), vehicle: other
  T/C: 102 % of control
dose: 200.0 mg/kg/injection, schedule: Q04DX003 (ip), vehicle: other
  T/C: 100 % of control
dose: 400.0 mg/kg/injection, schedule: Q01DX009 (ip), vehicle: other
  T/C: 114 % of control
dose: 400.0 mg/kg/injection, schedule: Q04DX003 (ip), vehicle: other
  T/C: 97 % of control

## O=C(O)C1=CC2C3C=C(C(=O)O)C(C3)C2C1 (stereo unspecified)
[9]
  T/C: 96 % of control
[10]
  T/C: 96 % of control
[11]
  T/C: 97 % of control

## O=C(O)CC1CCCCC1CC(=O)O (stereo unspecified)
dose: 25.0 mg/kg/injection, schedule: Q04DX002 (ip), vehicle: Klucel (hydroxypropylcellulose) (HPC)
  T/C: 101 % of control
dose: 50.0 mg/kg/injection, schedule: Q04DX002 (ip), vehicle: Klucel (hydroxypropylcellulose) (HPC)
  T/C: 98 % of control
[4]
  T/C: 92 % of control
[5]
  T/C: 95 % of control and 97 % of control
dose: 400.0 mg/kg/injection, schedule: Q04DX002 (ip), vehicle: Klucel (hydroxypropylcellulose) (HPC)
  T/C: 107 % of control

## O=c1[nH]cnc2c1ncn2C1SC(CO)C(O)C1O (stereo unspecified)
dose: 100.0 mg/kg/injection, schedule: Q01DX005 (ip), vehicle: saline
  T/C: 103 % of control
dose: 200.0 mg/kg/injection, schedule: Q01DX005 (ip), vehicle: saline
  T/C: 106 % of control

## COC(=O)C(Cc1c[nH]c2ccccc12)N(C)C (stereo unspecified)
dose: 100.0 mg/kg/injection, schedule: Q01DX001 (ip), vehicle: other
  T/C: 101 % of control
dose: 200.0 mg/kg/injection, schedule: Q01DX001 (ip), vehicle: other
  T/C: 103 % of control
dose: 400.0 mg/kg/injection, schedule: Q01DX001 (ip), vehicle: other
  T/C: 98 % of control

## O/N=C/c1ccc2ccccc2n1
dose: 18.75 mg/kg/injection, schedule: Q01DX009 (ip), vehicle: Klucel (hydroxypropylcellulose) (HPC)
  T/C: 105 % of control
dose: 18.75 mg/kg/injection, schedule: Q04DX003 (ip), vehicle: Klucel (hydroxypropylcellulose) (HPC)
  T/C: 97 % of control
dose: 37.5 mg/kg/injection, schedule: Q01DX009 (ip), vehicle: Klucel (hydroxypropylcellulose) (HPC)
  T/C: 100 % of control
dose: 37.5 mg/kg/injection, schedule: Q04DX003 (ip), vehicle: Klucel (hydroxypropylcellulose) (HPC)
  T/C: 103 % of control
dose: 75.0 mg/kg/injection, schedule: Q01DX009 (ip), vehicle: Klucel (hydroxypropylcellulose) (HPC)
  T/C: 113 % of control
dose: 75.0 mg/kg/injection, schedule: Q04DX003 (ip), vehicle: Klucel (hydroxypropylcellulose) (HPC)
  T/C: 97 % of control and 103 % of control

## Nc1cc(F)c2c(c1)Cc1cc(F)ccc1-2
[6]
  T/C: 101 % of control
[7]
  T/C: 109 % of control
[8]
  T/C: 95 % of control

## Clc1ccc(-c2cc(=[N+]3CCOCC3)ss2)cc1
dose: 25.0 mg/kg/injection, schedule: Q01DX009 (ip), vehicle: water
  T/C: 101 % of control
dose: 50.0 mg/kg/injection, schedule: Q01DX009 (ip), vehicle: water
  T/C: 93 % of control
dose: 100.0 mg/kg/injection, schedule: Q01DX009 (ip), vehicle: water
  T/C: 96 % of control
dose: 200.0 mg/kg/injection, schedule: Q01DX009 (ip), vehicle: water
  T/C: 88 % of control

## O=S(=O)(CCCCCl)Nc1ccc(NS(=O)(=O)CCCCCl)cc1
[12]
  T/C: 102 % of control
[13]
  T/C: 97 % of control
[14]
  T/C: 92 % of control
[15]
  T/C: 90 % of control
[16]
  T/C: 92 % of control
[17]
  T/C: 92 % of control

## CC1(C)N=C(N)N=C(N)N1c1cccc(OCCOc2ccc([N+](=O)[O-])cc2)c1
[18]
  T/C: 101 % of control
dose: 200.0 mg/kg/injection, schedule: Q01DX001 (ip), vehicle: saline
  T/C: 95 % of control

## BrC1c2ccccc2-c2nc3ccccc3cc21 (stereo unspecified)
dose: 37.5 mg/kg/injection, schedule: Q01DX001 (ip), vehicle: Klucel (hydroxypropylcellulose) (HPC)
  T/C: 103 % of control
dose: 75.0 mg/kg/injection, schedule: Q01DX001 (ip), vehicle: Klucel (hydroxypropylcellulose) (HPC)
  T/C: 97 % of control
dose: 150.0 mg/kg/injection, schedule: Q01DX001 (ip), vehicle: Klucel (hydroxypropylcellulose) (HPC)
  T/C: 101 % of control

## Nc1ccc2c(c1)Cc1cc(Br)ccc1-2
dose: 100.0 mg/kg/injection, schedule: Q01DX009 (ip), vehicle: Klucel (hydroxypropylcellulose) (HPC)
  T/C: 103 % of control
[19]
  T/C: 96 % of control
dose: 200.0 mg/kg/injection, schedule: Q01DX009 (ip), vehicle: Klucel (hydroxypropylcellulose) (HPC)
  T/C: 101 % of control
[20]
  T/C: 102 % of control
dose: 400.0 mg/kg/injection, schedule: Q01DX009 (ip), vehicle: Klucel (hydroxypropylcellulose) (HPC)
  T/C: 101 % of control
[21]
  T/C: 108 % of control

## CCCCOC(=O)CSC(=O)C(O)c1ccccc1 (stereo unspecified)
[13]
  T/C: 105 % of control
[15]
  T/C: 101 % of control
[17]
  T/C: 103 % of control

## OC(CN1CCCCC1)c1nc2ccccc2c2ccccc12 (stereo unspecified)
dose: 50.0 mg/kg/injection, schedule: Q01DX001 (ip), vehicle: saline
  T/C: 102 % of control
[18]
  T/C: 94 % of control

## CN=C(N)c1ccc(N=C(N)c2ccc(N=C(N)c3ccc(N=C(O)c4cccc(C(O)=Nc5ccc(C(N)=Nc6ccc(C(N)=Nc7ccc(C(N)=NC)cc7)cc6)cc5)c4)cc3)cc2)cc1
dose: 13.0 mg/kg/injection, schedule: Q01DX015 (ip), vehicle: water
  T/C: 186 % of control

## CCCCC1(C2CCCC2)NC(C)(C)CC(C)O1 (stereo unspecified)
[2]
  T/C: 95 % of control
[3]
  T/C: 104 % of control

## Cc1cc(NC(=O)COc2ccc([N+](=O)[O-])cc2Cl)ccc1S(=O)(=O)F
[12]
  T/C: 102 % of control
[14]
  T/C: 98 % of control
[16]
  T/C: 93 % of control

## Cc1nc(Cl)c(C#N)nc1C
[1]
  T/C: 100 % of control
[2]
  T/C: 96 % of control
[13]
  T/C: 100 % of control
[3]
  T/C: 89 % of control
[15]
  T/C: 94 % of control

## O=C1C(=O)c2ccccc2C=C1Br
[19]
  T/C: 94 % of control
[20]
  T/C: 95 % of control

## Cc1ccc(S(=O)(=O)NCC(=O)NCCC#N)cc1
[9]
  T/C: 103 % of control
[10]
  T/C: 97 % of control
[11]
  T/C: 92 % of control

## O=c1c2ccccc2nc(-c2ccccc2)n1O
[19]
  T/C: 103 % of control
[20]
  T/C: 106 % of control
[21]
  T/C: 91 % of control
